Measurements: US10968225B2, “Compounds and compositions for the treatment of cystic fibrosis” (Fondazione Istituto Italiano Di Tecnologia, priority 2017, dated 2021)
pEC50: −log10 of the molar value.

Target: T1, mutant CFTR (Homo sapiens, UniProt P13569, DEL508-508)
T1 construct: expressed in transfected cells
Assay: Fluorescence (HS-YFP) assay for CFTR activity, corrector assay
Type: cell-based
Settings: CFBE41o- and FRT cells with stable expression of mutant CFTR, read-out: activity (EC50)

T1 sequence (P13569 with tags, fused parts or gaps DEL508-508): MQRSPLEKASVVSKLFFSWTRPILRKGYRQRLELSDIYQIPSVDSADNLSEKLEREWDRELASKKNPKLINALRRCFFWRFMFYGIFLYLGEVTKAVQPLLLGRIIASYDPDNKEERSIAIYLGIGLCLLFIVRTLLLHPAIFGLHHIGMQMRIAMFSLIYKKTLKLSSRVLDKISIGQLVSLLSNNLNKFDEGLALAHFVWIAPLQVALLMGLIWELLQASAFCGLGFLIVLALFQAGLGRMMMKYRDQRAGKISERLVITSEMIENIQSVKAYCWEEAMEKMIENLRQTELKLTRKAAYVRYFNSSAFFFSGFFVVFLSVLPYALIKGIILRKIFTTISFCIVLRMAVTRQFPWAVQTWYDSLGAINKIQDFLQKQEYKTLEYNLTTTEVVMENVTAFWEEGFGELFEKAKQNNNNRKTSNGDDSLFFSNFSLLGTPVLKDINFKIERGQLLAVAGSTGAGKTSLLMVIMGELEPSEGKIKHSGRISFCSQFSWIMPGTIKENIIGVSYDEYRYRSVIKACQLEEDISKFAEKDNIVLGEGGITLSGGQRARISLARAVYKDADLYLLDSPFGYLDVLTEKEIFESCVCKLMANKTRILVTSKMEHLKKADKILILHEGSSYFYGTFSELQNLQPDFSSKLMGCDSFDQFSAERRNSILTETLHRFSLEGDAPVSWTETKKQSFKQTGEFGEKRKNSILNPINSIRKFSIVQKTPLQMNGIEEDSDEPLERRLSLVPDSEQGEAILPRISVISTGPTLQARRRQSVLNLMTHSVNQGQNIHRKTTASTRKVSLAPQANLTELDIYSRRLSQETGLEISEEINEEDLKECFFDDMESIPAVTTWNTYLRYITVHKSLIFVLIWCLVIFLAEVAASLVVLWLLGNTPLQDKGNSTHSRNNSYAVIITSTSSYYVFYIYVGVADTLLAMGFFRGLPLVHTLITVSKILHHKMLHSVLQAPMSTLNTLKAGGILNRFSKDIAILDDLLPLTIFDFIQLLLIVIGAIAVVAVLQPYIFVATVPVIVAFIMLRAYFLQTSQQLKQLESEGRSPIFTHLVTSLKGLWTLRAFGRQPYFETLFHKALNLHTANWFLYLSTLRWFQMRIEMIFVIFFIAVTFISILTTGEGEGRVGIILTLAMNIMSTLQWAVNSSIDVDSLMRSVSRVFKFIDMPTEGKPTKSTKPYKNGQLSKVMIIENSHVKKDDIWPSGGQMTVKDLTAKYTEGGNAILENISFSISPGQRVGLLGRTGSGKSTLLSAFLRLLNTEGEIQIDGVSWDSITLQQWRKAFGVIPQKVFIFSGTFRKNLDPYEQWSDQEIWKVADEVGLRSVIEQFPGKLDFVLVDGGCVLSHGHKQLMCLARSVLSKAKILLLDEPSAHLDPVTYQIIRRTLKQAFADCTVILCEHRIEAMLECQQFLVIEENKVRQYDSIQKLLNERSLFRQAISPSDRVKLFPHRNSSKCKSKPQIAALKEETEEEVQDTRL

CN(C(=O)c1cccc(-n2nc(C(F)(F)F)c3c2C(Oc2ccc(C(=O)O)cc2)CCC3)c1)c1ccc2c(c1)OC(F)(F)O2 (centres unmarked) [Compound 109, 4-[[1-[3-[(2,2-Difluoro-1,3-benzodioxol-5-yl)-methyl-carbamoyl]phenyl]-3-(trifluoromethyl)-4,5,6,7-tetrahydroindazol-7-yl]oxy]benzoic acid]
pEC50: > 6.00

Cc1nn(-c2cccc(C(=O)N(C)c3ccc4c(c3)OCO4)c2)c2c1CCCC2 [Compound 132, N-(1,3-Benzodioxol-5-yl)-N-methyl-3-(3-methyl-4,5,6,7-tetrahydroindazol-1-yl)benzamide]
pEC50: 5.70 to 6.00

CC(C)c1nn(-c2cccc(C(=O)N(C)c3ccc4c(c3)OCO4)c2)c2c1CCCC2 [Compound 133, N-(1,3-Benzodioxol-5-yl)-3-(3-isopropyl-4,5,6,7-tetrahydroindazol-1-yl)-N-methyl-benzamide]
pEC50: > 6.00

CN(C(=O)c1cccc(-n2nc(C(F)(F)F)c3c2CCN(CCCC(=O)O)C3)c1)c1ccc2c(c1)OCO2 [Compound 135, 4-[1-[3-[1,3-Benzodioxol-5-yl(methyl)carbamoyl]phenyl]-3-(trifluoromethyl)-6,7-dihydro-4H-pyrazolo[4,3-c]pyridin-5-yl]butanoic acid]
pEC50: < 5.70

Cc1nc2ccc(N(C)C(=O)c3cccc(-n4nc(C(F)(F)F)c5c4CCN(S(=O)(=O)c4c(C)noc4C)C5)c3)cc2o1 [Compound 137, 3-[5-(3,5-Dimethylisoxazol-4-yl)sulfonyl-3-(trifluoromethyl)-6,7-dihydro-4H-pyrazolo[4,3-c]pyridin-1-yl]-N-methyl-N-(2-methyl-1,3-benzoxazol-6-yl)benzamide]
pEC50: > 6.00

Cc1nc2cc(F)c(N(C)C(=O)c3cccc(-n4nc(C(F)(F)F)c5c4CCN(S(=O)(=O)c4c(C)noc4C)C5)c3)cc2o1 [Compound 138, 3-[5-(3,5-Dimethylisoxazol-4-yl)sulfonyl-3-(trifluoromethyl)-6,7-dihydro-4H-pyrazolo[4,3-c]pyridin-1-yl]-N-(5-fluoro-2-methyl-1,3-benzoxazol-6-yl)-N-methyl-benzamide]
pEC50: > 6.00

CN(C(=O)c1cccc(-n2nc(C(F)(F)F)c3c2CCN(C2CC(C(=O)O)C2)C3)c1)c1ccc2c(c1)OCO2 (centres unmarked) [Compound 140, 3-[1-[3-[1,3-Benzodioxol-5-yl(methyl)carbamoyl]phenyl]-3-(trifluoromethyl)-6,7-dihydro-4H-pyrazolo[4,3-c]pyridin-5-yl]cyclobutanecarboxylic acid]
pEC50: < 5.70

CN(C(=O)c1cccc(-n2nc(C(F)(F)F)c3c2CCN(C(=O)C(C)(C)C)C3)c1)c1ccc2nccnc2c1 [Compound 141, 3-[5-(2,2-Dimethylpropanoyl)-3-(trifluoromethyl)-6,7-dihydro-4H-pyrazolo[4,3-c]pyridin-1-yl]-N-methyl-N-quinoxalin-6-yl-benzamide]
pEC50: > 6.00

COc1ncc(N(C)C(=O)c2cccc(-n3nc(C(F)(F)F)c4c3CCN(C(=O)C(C)(C)C)C4)c2)cn1 [Compound 142, 3-[5-(2,2-Dimethylpropanoyl)-3-(trifluoromethyl)-6,7-dihydro-4H-pyrazolo[4,3-c]pyridin-1-yl]-N-(2-methoxypyrimidin-5-yl)-N-methyl-benzamide]
pEC50: < 5.70

CN(C(=O)c1cccc(-n2nc(C(F)(F)F)c3c2C(Oc2ccc(C(=O)O)c(F)c2)CCC3)c1)c1ccc2c(c1)OC(F)(F)O2 (centres unmarked) [Compound 147, 2-Fluoro-4-[[1-[3-[(2,2-difluoro-1,3-benzodioxol-5-yl)-methyl-carbamoyl]phenyl]-3-(trifluoromethyl)-4,5,6,7-tetrahydroindazol-7-yl]oxy]benzoic acid]
pEC50: > 6.00

Cc1nc2cc(F)c(N(C)C(=O)c3cccc(-n4nc(C(F)(F)F)c5c4C(Oc4ccc(C(=O)O)cc4)CCC5)c3)cc2o1 (centres unmarked) [Compound 153, 4-[[1-[3-[(5-Fluoro-2-methyl-1,3-benzoxazol-6-yl)-methyl-carbamoyl]phenyl]-3-(trifluoromethyl)-4,5,6,7-tetrahydroindazol-7-yl]oxy]benzoic acid]
pEC50: > 6.00
